From PubChem BioAssay (NCI)
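Briefly, cells in 96-well plates were exposed to five compound concentrations for 48 h, and endpoints were estimated by linear interpolation. GI50: concentration for 50% inhibition of growth. TGI marks complete inhibition of growth.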

Key:
Assay in all cases: inhibition of tumour cell growth, NCI panel, 48 h
BT-549 breast = tested on: BT-549 breast
OVCAR-4 ovarian = tested on: OVCAR-4 ovarian
UACC-257 melanoma = tested on: UACC-257 melanoma
KM12 colon = tested on: KM12 colon
COLO 205 colon = tested on: COLO 205 colon
SF-295 CNS = tested on: SF-295 CNS
SF-268 CNS = tested on: SF-268 CNS
SK-MEL-5 melanoma = tested on: SK-MEL-5 melanoma
U251 CNS = tested on: U251 CNS
MCF7 breast = tested on: MCF7 breast
SNB-19 CNS = tested on: SNB-19 CNS
NCI-H460 lung = tested on: NCI-H460 lung
LOX IMVI melanoma = tested on: LOX IMVI melanoma
EKVX NSCLC = tested on: EKVX NSCLC
DU-145 prostate = tested on: DU-145 prostate
HCT-116 colon = tested on: HCT-116 colon
HT29 colon = tested on: HT29 colon
HL-60(TB) leukemia = tested on: HL-60(TB) leukemia
SN12C renal = tested on: SN12C renal
A498 renal = tested on: A498 renal
UACC-62 melanoma = tested on: UACC-62 melanoma
TK-10 renal = tested on: TK-10 renal
RXF 393 renal = tested on: RXF 393 renal
T-47D breast = tested on: T-47D breast
IGROV1 ovarian = tested on: IGROV1 ovarian
K-562 leukemia = tested on: K-562 leukemia
RPMI-8226 leukemia = tested on: RPMI-8226 leukemia
MDA-MB-435 = tested on: MDA-MB-435
UO-31 renal = tested on: UO-31 renal

In the case of C#CCn1cccc1CNc1ccc(OC)cc1, the GI50 (BT-549 breast) is reported as 57 µM, the TGI (BT-549 breast) is reported as > 100 µM and the GI50 (OVCAR-4 ovarian) is reported as 28.7 µM. The TGI (OVCAR-4 ovarian) was > 100 µM, the GI50 (UACC-257 melanoma) was 45.5 µM and the TGI (UACC-257 melanoma) was > 100 µM. For the same compound, the GI50 (KM12 colon) was 51.7 µM, the TGI (KM12 colon) was > 100 µM and the GI50 (COLO 205 colon) was > 100 µM. For the same compound, the TGI (COLO 205 colon) was > 100 µM, the GI50 (SF-295 CNS) was > 100 µM and the TGI (SF-295 CNS) was > 100 µM. For the same compound, the GI50 (SF-268 CNS) was > 100 µM, the TGI (SF-268 CNS) was > 100 µM and the GI50 (SK-MEL-5 melanoma) was 67.8 µM. For the same compound, the TGI (SK-MEL-5 melanoma) was > 100 µM, the GI50 (U251 CNS) was > 100 µM and the TGI (U251 CNS) was > 100 µM. The GI50 (MCF7 breast) was 79.6 µM, the TGI (MCF7 breast) was > 100 µM and the GI50 (SNB-19 CNS) was > 100 µM. The TGI (SNB-19 CNS) was > 100 µM, the GI50 (NCI-H460 lung) was > 100 µM and the TGI (NCI-H460 lung) was > 100 µM. For the same compound, the GI50 (LOX IMVI melanoma) was 56.9 µM, the TGI (LOX IMVI melanoma) was > 100 µM and the GI50 (EKVX NSCLC) was 25.5 µM. For the same compound, the TGI (EKVX NSCLC) was > 100 µM, the GI50 (DU-145 prostate) was > 100 µM and the TGI (DU-145 prostate) was > 100 µM. The GI50 (HCT-116 colon) was 75.7 µM, the TGI (HCT-116 colon) was > 100 µM and the GI50 (HT29 colon) was > 100 µM. The TGI (HT29 colon) was > 100 µM, the GI50 (HL-60(TB) leukemia) was 34.6 µM and the TGI (HL-60(TB) leukemia) was > 100 µM. The GI50 (SN12C renal) was > 100 µM, the TGI (SN12C renal) was > 100 µM and the GI50 (A498 renal) was 8.54 µM. The TGI (A498 renal) was > 100 µM, the GI50 (UACC-62 melanoma) was 74.1 µM and the TGI (UACC-62 melanoma) was > 100 µM. For the same compound, the GI50 (TK-10 renal) was > 100 µM, the TGI (TK-10 renal) was > 100 µM and the GI50 (RXF 393 renal) was > 100 µM. For the same compound, the TGI (RXF 393 renal) was > 100 µM, the GI50 (T-47D breast) was 37.8 µM and the TGI (T-47D breast) was > 100 µM. For the same compound, the GI50 (IGROV1 ovarian) was 53.7 µM, the TGI (IGROV1 ovarian) was > 100 µM and the GI50 (K-562 leukemia) was 44.6 µM. For the same compound, the TGI (K-562 leukemia) was > 100 µM, the GI50 (RPMI-8226 leukemia) was 25 µM and the TGI (RPMI-8226 leukemia) was > 100 µM. The GI50 (MDA-MB-435) was 78.9 µM, the TGI (MDA-MB-435) was > 100 µM and the GI50 (UO-31 renal) was 39.1 µM. The TGI (UO-31 renal) was > 100 µM.
